Source: patent US8722043B2, “Induction of p53 expression by neutralization of neuropilin-2 for the treatment of cancers” (Diaclone, priority 2008, dated 2014)

What was measured:
[1] = tested on: mutant p53 proteins; details: model of human xenograft; review Levesque & Eastman 2007; cited from earlier work
[2] = tested on: Colo320siRNA-ctrl cells; assay: Annexin V-APC apoptosis test with or without PFTα pretreatment; format: cell-based, human; details: PFTα 27 μM, 18 h pretreatment
Procedure: In order to correlate the induction of apoptosis with p53 expression, the Colo320siRNA-ctrl cells were pretreated for 18 h with a chemical inhibitor of p53, pifithrin-α, at a dose of 27 μM (PFTα, Sigma). After pretreatment, the cells are washed twice with 3 ml of PBS and placed in a 24-well plate, at a rate of 100 000 cells/well in 1 ml of RPMI-10% FCS. Non-pretreated cells are placed under the same conditions. The cells are incubated for 5 h with a control murine isotype antibody (BZ1) or ITAC-B1 at 20 μg/ml and the apoptosis is measured as described above.
FIG. 14 represents the results of the apoptosis-induction experiments carried out with the Colo320siRNA-ctrl cells pretreated or not pretreated with PFTα. The percentage of cells labelled with Annexin V-APC is indicated on the y-axis, the cell culture conditions are indicated on the x-axis (control consisting of medium, control consisting of medium supplemented with a control isotype antibody -BZ1-, test consisting of medium supplemented with the ITAC-B1 antibody). The results of the tests carried out with cells pretreated with PFTα are represented in light grey, those of the tests carried out with non-pretreated cells are represented in dark grey.

[3] = tested on: Colo320 human tumour cells; assay: Tumour colony formation in semi-solid agar medium; format: cell-based; details: for number of colonies formed: 50 μg/ml, 10 days post-seeding (FIG. 9)
Procedure: In order to determine whether the ITAC-B1 antibody has a neutralizing activity on the formation of tumour colonies in vitro, tests for tumour colony formation in vitro in a semi-solid agar medium containing agar were carried out. The principle of this test is based on bringing Colo320 human tumour cells (which express NRP-2 at their membrane surface and, furthermore, naturally secrete VEGF into the culture medium) into contact with the ITAC-B1 antibody. 4000 Colo320 cells are seeded into each well of a 24-well plate, in a semi-solid medium containing agar, and in the presence of 10 μg/ml of anti-NRP-2 antibody ITAC-B1. By way of comparison, the same test is carried out in the presence of cytotoxic agents with a proven action, i.e. 5-fluorouracil (5-FU), used at a rate of 50 μg/ml, or of Avastin® (bevacizumab: humanized monoclonal antibodies directed against VEGF), used at a rate of 50 μg/ml, or in the presence of a control isotype antibody (mouse IgG1 monoclonal antibody (BZ1)), used at a rate of 10 μg/ml.
At 10 days post-seeding, the colonies were counted under an optical microscope.
Since neuropilin-2 is a coreceptor for VEGF, it was verified whether the activity of ITAC-B1 was dependent on an interaction between NRP-2 and the VEGF produced by the Colo320 cells. With this aim, the tests for Colo320-cell colony formation were carried out under the conditions described above, and in the presence of ITAC-B1 antibody (10 μg/ml), of bevacizumab (50 μg/ml) or of control antibody (10 μg/ml), used separately or in combination.
The results are given in FIG. 10: the y-axis represents the number of colonies formed; on the x-axis, the antibodies present in the culture medium are indicated by a “+”.

[4] = tested on: HT29-NRP-2 tumour cells; assay: HT29-NRP-2 subcutaneous xenograft, tumour volume; format: in vivo, immunodeficient mice; details: group C: 5-FU intraperitoneally 20 mg/kg D0 to D4, 100 mg/kg at D9
Procedure: HT29-NRP-2 tumour cells were injected subcutaneously into 20 immunodeficient mice, at a rate of 1×10^6 cells per mouse, in the right flank. 10 days after the injection, the tumours measure approximately 5 mm×5 mm.
In accordance with the protocol described above, group B was inoculated with ITAC-B1 at D0 (12 mg/kg), D3 (6 mg/kg), D7 (12 mg/kg) and D10 (6 mg/kg). Group C was inoculated with 20 mg/kg of 5-FU from D0 to D4 and then with 100 mg/kg at D9. Group D was inoculated with ITAC-B1 at D0 (12 mg/kg), D3 (6 mg/kg), D7 (12 mg/kg) and D10 (6 mg/kg) and with 20 mg/kg of 5-FU from D0 to D4 and 100 mg/kg of 5-FU at D9.
The tumours were measured twice a week, and the volume of the tumours was calculated with the formula: V (mm^3)=d^2×D/2.
FIG. 21 represents the tumour volume as a function of time. Group A (PBS control) is represented by (⋄), group B (mice inoculated with the ITAC-B1 antibody) is represented by (▪), group C (mice inoculated with 5-FU) is represented by (Δ), and group D (mice inoculated both with the ITAC-B1 antibody and with 5-FU) is represented by (x).

[5] = tested on: HT29-NRP-2 cells; assay: Annexin V-APC apoptosis test; format: cell-based, human; details: selection criterion of the hybridoma clones
Procedure: In order to determine the ability of the ITAC-B1 antibody to induce apoptosis of tumour cells expressing NRP-2, an in vitro Annexin V-APC apoptosis test was carried out (BD Pharmingen, San Diego, Calif.). This test is based on the externalization of phosphatidylserin by apoptotic cells and on the binding of Annexin V-APC to this molecule.
1 ml of DMEM medium containing 10% of inactivated FCS and 100 000 HT29-NRP-2 cells or 100 000 HT29ctrl cells were seeded, per well, into a 24-well Nunc plate. […] In parallel, “cells alone” controls were carried out, as were negative controls (anti-human mouse IgG1 antibody (BZ1) at the same concentrations as the ITAC-B1 antibody).
[…] When the cells began to detach, 500 μl of DMEM medium-10% FCS were added per well. The cells were then centrifuged, washed twice in PBS, and then taken up in 300 μl of 1× binding buffer (provided in the kit), and then 5 μl of Annexin V-APC were subsequently added to 100 μl of this solution.
The panels of FIG. 13 are point-cloud representations of the flow cytometry analysis. For each of the panels, the fluorescence intensity (corresponding to the labelling of the cells with Annexin V-APC) is represented on the x-axis. The y-axis indicates the granulosity of the cells (Side Scatter or SSC). […] The percentage of cells labelled with Annexin V-APC (corresponding to the percentage of cells having entered into apoptosis) is indicated at the bottom-right of each panel.
The apoptosis induced was then measured by labelling with Annexin V-APC as described above.
The panels of FIG. 15 are point-cloud representations of the flow cytometry analysis. For each of the panels, the fluorescence intensity (corresponding to the labelling of the cells with Annexin V-APC) is represented on the x-axis. The y-axis indicates the granulosity (side scatter) of the cells. The conditions of treatment with the antibodies and the Avastin® are indicated to the left of the panels. The percentage of cells labelled with the Annexin V-APC, corresponding to the percentage of cells having entered into apoptosis, is indicated at the top-right of each panel.

[6] = tested on: p53 protein; assay: Western blotting of p53 expression after antibody treatment; format: cell-based, human; details: HT29-NRP-2 and Colo320^siRNA-ctrl; 20 ng/ml, 48 hours
Procedure: The HT29, HT29-NRP-2, Colo320^siRNA-ctrl tumour cells and Colo320^siRNA-NRP-2 were exposed to 20 ng/ml of ITAC-B1 antibody or of control antibody, and cultured for 48 hours. After lysis of the cell lines, migration of the protein pellets obtained on a 10% polyacrylamide gel (10 μg of protein per well) and then transfer onto a PVDF membrane, the membrane was incubated overnight with the anti-p53 primary antibody (BD Biosciences, mouse anti-human p53) diluted to 1/500. After washing in TBS/0.1% Tween20, the membranes were incubated for 1 hour with an anti-mouse IgG-HRP secondary antibody diluted to 1/6000. The results are represented in FIG. 19.

COc1ccc(/C=C/c2nc(NCCCN(C)C)c3ccccc3n2)cc1 [CP-31398]
tumour growth [1]: successfully used to inhibit tumour growth

Cc1ccc(C(=O)Cn2c3c(sc2=N)CCCC3)cc1 [PFTα, pifithrin-α, reference compound]
effect of pretreatment on ITAC-B1-dependent apoptosis [2]: prevents the ITAC-B1-dependent apoptosis

O=C1C2CCN(CC2)C1(CO)CO [PRIMA-1]
tumour growth [1]: successfully used to inhibit tumour growth

CCC(=O)OCN1C(=O)C=CC1=O [MIRA-1]
tumour growth [1]: successfully used to inhibit tumour growth

O=c1[nH]cc(F)c(=O)[nH]1 [5-FU, 5-fluorouracil, reference compound]
number of colonies formed [3]: approximately 40
tumour volume [4]: reduction in tumour volume is observed starting from D14

bevacizumab [Avastin®]
number of colonies formed [3]: approximately 120
effect on the proliferation of the Colo320 cells (number of colonies) ([3]; bevacizumab 50 μg/ml (FIG. 10)): very little effect

B1: ITAC-B2: anti-human neuropilin-2 monoclonal antibody, VH SEQ ID No. 6, VL SEQ ID No. 8 (antibody, listed as Mus musculus, V domains shown)
VH: EVQLEESGGGLVKPGGSLKLSCAASGFTFSDYYMYWVRQTPEKRLEWVATISDGGSYTYYPDSIKGRFTISRDNARNNLYLQMSSLKSEDTAMYYCARGGPYRSWFAFWGQGTLVTVSA
VL: DIVITQTPLSLPVSLGDQASISCRSSQSIVYSNGNTYLEWYLQKPGQSPKLLIYKVSNRFSGVPDRFSGSGSGTDFTLKISRVEAEDLGVYYCFQGSHVPPTFGGGTKLEIK
ability to induce apoptosis of tumour cells expressing neuropilin-2 (selection of clones) [5]: ability to induce apoptosis of tumour cells expressing neuropilin-2
expression of p53 in lines which express NRP-2 [6]: have the Ability to Induce Expression of the p53 Protein
